PubChem BioAssay AID256 (DTP/NCI, 2004)
Several values for one entry are separate records, joined by “and”; a condition that tells them apart may be missing. Equal values may be shown once. Toxic doses and inconclusive results are not listed. How the source made its calls: active means survival T/C of 150% or more; inactive means T/C below 125% in these data.

Test system: CD2F1 mice, L1210 leukemia ip, survival T/C
Experiment: NCI In Vivo Anticancer Drug Screen. Data for tumor model L1210 Leukemia (intraperitoneal) in CD2F1 (CDF1) mice
Settings: higher = longer survival
Method in brief: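 Read-out first: treated-group measurement over vehicle-control measurement, expressed as a ratio. Animals bore a transplanted tumor line and were dosed with compound or vehicle.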

[1] = endpoint: mean survival time, dose: 12.5 mg/kg/injection, schedule: Q01DX009 (ip), vehicle: saline with Tween-80
[2] = endpoint: mean survival time, dose: 25.0 mg/kg/injection, schedule: Q01DX009 (ip), vehicle: saline with Tween-80
[3] = endpoint: mean survival time, dose: 50.0 mg/kg/injection, schedule: Q01DX009 (ip), vehicle: saline with Tween-80
[4] = endpoint: mean survival time, dose: 100.0 mg/kg/injection, schedule: Q01DX009 (ip), vehicle: saline with Tween-80
[5] = endpoint: mean survival time, dose: 100.0 mg/kg/injection, schedule: Q04DX003 (ip), vehicle: saline with Tween-80
[6] = endpoint: mean survival time, dose: 100.0 mg/kg/injection, schedule: Q01DX001 (ip), vehicle: saline with Tween-80
[7] = endpoint: mean survival time, dose: 200.0 mg/kg/injection, schedule: Q01DX001 (ip), vehicle: saline with Tween-80
[8] = endpoint: mean survival time, dose: 400.0 mg/kg/injection, schedule: Q01DX001 (ip), vehicle: saline with Tween-80
[9] = endpoint: mean survival time, dose: 100.0 mg/kg/injection, schedule: Q04DX002 (ip), vehicle: saline with Tween-80
[10] = endpoint: mean survival time, dose: 200.0 mg/kg/injection, schedule: Q04DX002 (ip), vehicle: saline with Tween-80
[11] = endpoint: mean survival time, dose: 100.0 mg/kg/injection, schedule: Q01DX009 (ip), vehicle: Klucel (hydroxypropylcellulose) (HPC)
[12] = endpoint: mean survival time, dose: 200.0 mg/kg/injection, schedule: Q01DX009 (ip), vehicle: Klucel (hydroxypropylcellulose) (HPC)
[13] = endpoint: mean survival time, dose: 400.0 mg/kg/injection, schedule: Q01DX009 (ip), vehicle: Klucel (hydroxypropylcellulose) (HPC)

Measured: T/C

COc1cc(OC)c(NC(=O)Nc2c(C)n(C)n(-c3ccccc3)c2=O)cc1Cl
inactive: [1] 91 % of control | [2] 97 % of control | [3] 93 % of control and 97 % of control | endpoint: mean survival time, dose: 200.0 mg/kg/injection, schedule: Q01DX009 (ip), vehicle: saline with Tween-80 89 % of control

c1ccc(CNCCNCc2ccccc2)cc1
inactive: [4] 95 % of control | [5] 97 % of control

CC1CC(C)(C)N=C(CC(=O)N2Cc3cc4ccccc4nc3C2)O1 (stereo not drawn)
inactive: [6] 96 % of control | [7] 104 % of control | [8] 96 % of control

Cc1cccc(OP(N)(=O)Oc2cccc(C)c2)c1
inactive: [9] 96 % of control | [10] 96 % of control | endpoint: mean survival time, dose: 400.0 mg/kg/injection, schedule: Q04DX002 (ip), vehicle: saline with Tween-80 96 % of control

C(=Nc1cccc2ccccc12)c1ccc2c(c1)OCO2
inactive: endpoint: mean survival time, dose: 100.0 mg/kg/injection, schedule: Q01DX001 (ip), vehicle: Klucel (hydroxypropylcellulose) (HPC) 98 % of control | [11] 91 % of control | endpoint: mean survival time, dose: 200.0 mg/kg/injection, schedule: Q01DX001 (ip), vehicle: Klucel (hydroxypropylcellulose) (HPC) 93 % of control | [12] 96 % of control | endpoint: mean survival time, dose: 400.0 mg/kg/injection, schedule: Q01DX001 (ip), vehicle: Klucel (hydroxypropylcellulose) (HPC) 96 % of control | [13] 96 % of control

CS(=O)(=O)c1ncc(Br)cn1
inactive: endpoint: mean survival time, dose: 3.12 mg/kg/injection, schedule: Q01DX009 (ip), vehicle: saline with Tween-80 101 % of control | endpoint: mean survival time, dose: 3.13 mg/kg/injection, schedule: Q01DX009 (ip), vehicle: saline with Tween-80 101 % of control | endpoint: mean survival time, dose: 6.25 mg/kg/injection, schedule: Q01DX009 (ip), vehicle: saline with Tween-80 101 % of control and 106 % of control | [1] 101 % of control and 102 % of control | [2] 95 % of control and 107 % of control | [3] 103 % of control and 104 % of control | [4] 104 % of control and 108 % of control

COc1ccc(C(=O)CC(=O)NC(=O)c2ccc(OC)cc2)cc1
inactive: endpoint: mean survival time, dose: 100.0 mg/kg/injection, schedule: Q01DX001 (ip), vehicle: other 96 % of control | endpoint: mean survival time, dose: 200.0 mg/kg/injection, schedule: Q01DX001 (ip), vehicle: other 97 % of control | endpoint: mean survival time, dose: 400.0 mg/kg/injection, schedule: Q01DX001 (ip), vehicle: other 96 % of control

Cc1cn(C2CC(O)C(COP(N)(N)=O)O2)c(=O)[nH]c1=O (stereo not drawn)
inactive: endpoint: mean survival time, dose: 12.5 mg/kg/injection, schedule: Q01DX005 (ip), vehicle: distilled water + Tween-80 98 % of control | endpoint: mean survival time, dose: 25.0 mg/kg/injection, schedule: Q01DX005 (ip), vehicle: distilled water + Tween-80 98 % of control | endpoint: mean survival time, dose: 50.0 mg/kg/injection, schedule: Q01DX005 (ip), vehicle: distilled water + Tween-80 98 % of control | endpoint: mean survival time, dose: 100.0 mg/kg/injection, schedule: Q01DX005 (ip), vehicle: distilled water + Tween-80 96 % of control | endpoint: mean survival time, dose: 200.0 mg/kg/injection, schedule: Q01DX005 (ip), vehicle: distilled water + Tween-80 98 % of control

CN=C(N)c1ccc(N=C(N)c2ccc(N=C(N)c3ccc(NC(=O)c4ccc(C(=O)Nc5ccc(C(N)=Nc6ccc(C(N)=Nc7ccc(C(N)=NC)cc7)cc6)cc5)cc4)cc3)cc2)cc1
inactive: endpoint: mean survival time, dose: 62.5 mg/kg/injection, schedule: Q01DX Z (ip), vehicle: water 111 % of control

O=C(OC(=O)c1cccc(-c2ccccc2)c1)c1cccc(-c2ccccc2)c1
inactive: [11] 109 % of control | [12] 100 % of control | [13] 97 % of control

Cc1ccc(/C=C2\CCOC2=O)cc1
inactive: endpoint: mean survival time, dose: 100.0 mg/kg/injection, schedule: Q04DX003 (ip), vehicle: Klucel (hydroxypropylcellulose) (HPC) 102 % of control | endpoint: mean survival time, dose: 200.0 mg/kg/injection, schedule: Q04DX003 (ip), vehicle: Klucel (hydroxypropylcellulose) (HPC) 96 % of control | endpoint: mean survival time, dose: 400.0 mg/kg/injection, schedule: Q04DX003 (ip), vehicle: Klucel (hydroxypropylcellulose) (HPC) 96 % of control

CN1CC2C3CCC(C3)C2(C)C1O (stereo not drawn)
inactive: endpoint: mean survival time, dose: 50.0 mg/kg/injection, schedule: Q04DX002 (ip), vehicle: saline with Tween-80 103 % of control | [9] 103 % of control | [10] 87 % of control

CCCCOS(=O)OCCCC
inactive: [6] 106 % of control | [7] 102 % of control | [8] 97 % of control

CCCCCCCCCC(=O)CCCCC
inactive: endpoint: mean survival time, dose: 100.0 mg/kg/injection, schedule: Q04DX003 (ip), vehicle: other 89 % of control | endpoint: mean survival time, dose: 200.0 mg/kg/injection, schedule: Q04DX003 (ip), vehicle: other 94 % of control | endpoint: mean survival time, dose: 400.0 mg/kg/injection, schedule: Q04DX003 (ip), vehicle: other 103 % of control

CN(C)/C=N/N1CCCCCC1
inactive: endpoint: mean survival time, dose: 25.0 mg/kg/injection, schedule: Q04DX003 (ip), vehicle: saline 103 % of control | endpoint: mean survival time, dose: 50.0 mg/kg/injection, schedule: Q04DX003 (ip), vehicle: saline 97 % of control | endpoint: mean survival time, dose: 100.0 mg/kg/injection, schedule: Q04DX003 (ip), vehicle: saline 96 % of control

c1ccc2c(c1)[nH]c1c3[n+](ccc12)CCCC3
inactive: endpoint: mean survival time, dose: 100.0 mg/kg/injection, schedule: Q01DX001 (ip), vehicle: saline 119 % of control

CCO/C=C1\SC(=S)N(Cc2ccccc2)C1=O
inactive: endpoint: mean survival time, dose: 25.0 mg/kg/injection, schedule: Q01DX009 (ip), vehicle: other 105 % of control | endpoint: mean survival time, dose: 50.0 mg/kg/injection, schedule: Q01DX009 (ip), vehicle: other 115 % of control | [4] 89 % of control

O=S(=O)(Nc1cc(Cl)c(NS(=O)(=O)c2ccccc2)cc1Cl)c1ccccc1
inactive: [6] 96 % of control | [7] 88 % of control | [8] 93 % of control

O=C(COc1cccc(Cl)c1)NCc1cccc(NC(=O)Nc2cccc(S(=O)(=O)F)c2)c1
inactive: [6] 91 % of control | [7] 98 % of control | [8] 101 % of control

C#CC(O)C(CC)CCCC (stereo not drawn)
inactive: [3] 99 % of control | [4] 94 % of control

COc1cc2c(cc1OC)C1CC(=O)CCN1CC2 (stereo not drawn)
inactive: endpoint: mean survival time, dose: 12.5 mg/kg/injection, schedule: Q01DX009 (ip), vehicle: Klucel (hydroxypropylcellulose) (HPC) 97 % of control and 104 % of control | endpoint: mean survival time, dose: 25.0 mg/kg/injection, schedule: Q01DX009 (ip), vehicle: Klucel (hydroxypropylcellulose) (HPC) 97 % of control and 98 % of control | endpoint: mean survival time, dose: 50.0 mg/kg/injection, schedule: Q01DX009 (ip), vehicle: Klucel (hydroxypropylcellulose) (HPC) 95 % of control and 98 % of control | [11] 97 % of control and 100 % of control | endpoint: median survival time, dose: 12.5 mg/kg/injection, schedule: Q01DX009 (ip), vehicle: Klucel (hydroxypropylcellulose) (HPC) 97 % of control | endpoint: median survival time, dose: 25.0 mg/kg/injection, schedule: Q01DX009 (ip), vehicle: Klucel (hydroxypropylcellulose) (HPC) 94 % of control | endpoint: median survival time, dose: 50.0 mg/kg/injection, schedule: Q01DX009 (ip), vehicle: Klucel (hydroxypropylcellulose) (HPC) 92 % of control | endpoint: median survival time, dose: 100.0 mg/kg/injection, schedule: Q01DX009 (ip), vehicle: Klucel (hydroxypropylcellulose) (HPC) 101 % of control

O=c1[nH]c2ccc(I)cc2c(=O)o1
inactive: [5] 101 % of control | endpoint: mean survival time, dose: 200.0 mg/kg/injection, schedule: Q04DX003 (ip), vehicle: saline with Tween-80 98 % of control | endpoint: mean survival time, dose: 400.0 mg/kg/injection, schedule: Q04DX003 (ip), vehicle: saline with Tween-80 104 % of control

Cc1cc2cc3n(c2nn1)N=C(Cl)CC3
inactive: endpoint: mean survival time, dose: 61.87 mg/kg/injection, schedule: Q04DX002 (ip), vehicle: Klucel (hydroxypropylcellulose) (HPC) 103 % of control | endpoint: mean survival time, dose: 100.0 mg/kg/injection, schedule: Q04DX002 (ip), vehicle: Klucel (hydroxypropylcellulose) (HPC) 101 % of control | endpoint: mean survival time, dose: 123.75 mg/kg/injection, schedule: Q04DX002 (ip), vehicle: Klucel (hydroxypropylcellulose) (HPC) 105 % of control | endpoint: mean survival time, dose: 200.0 mg/kg/injection, schedule: Q04DX002 (ip), vehicle: Klucel (hydroxypropylcellulose) (HPC) 103 % of control | endpoint: mean survival time, dose: 247.5 mg/kg/injection, schedule: Q04DX002 (ip), vehicle: Klucel (hydroxypropylcellulose) (HPC) 109 % of control

N=C(N)SCCc1ccccc1
inactive: endpoint: mean survival time, dose: 12.5 mg/kg/injection, schedule: Q01DX001 (ip), vehicle: saline 95 % of control | endpoint: mean survival time, dose: 25.0 mg/kg/injection, schedule: Q01DX001 (ip), vehicle: saline 100 % of control | endpoint: mean survival time, dose: 50.0 mg/kg/injection, schedule: Q01DX001 (ip), vehicle: saline 103 % of control
